According to US7364866B2, “Drosophila G protein coupled receptors, nucleic acids, and methods related to the same” (Pharmacia & Upjohn Company, priority 1999, dated 2008):
Where two headings read alike, the source gives them in different places. Non-standard residues stand in square brackets, D forms with d. Residues, ends and D or L forms follow the SMILES beside them. No end group written: not given here. pGlu = O=C1CC[C@@H](C(=O)O)N1

Tests used:
DmGPCR7 = assay: FLIPR analysis of intracellular calcium release; assay type: cell-based, Drosophila melanogaster; settings: DmGPCR7 in CHO-10001A cells; peptides with C-terminal HSWGa; given in words
Chain of DmGPCR7 (as listed by the source): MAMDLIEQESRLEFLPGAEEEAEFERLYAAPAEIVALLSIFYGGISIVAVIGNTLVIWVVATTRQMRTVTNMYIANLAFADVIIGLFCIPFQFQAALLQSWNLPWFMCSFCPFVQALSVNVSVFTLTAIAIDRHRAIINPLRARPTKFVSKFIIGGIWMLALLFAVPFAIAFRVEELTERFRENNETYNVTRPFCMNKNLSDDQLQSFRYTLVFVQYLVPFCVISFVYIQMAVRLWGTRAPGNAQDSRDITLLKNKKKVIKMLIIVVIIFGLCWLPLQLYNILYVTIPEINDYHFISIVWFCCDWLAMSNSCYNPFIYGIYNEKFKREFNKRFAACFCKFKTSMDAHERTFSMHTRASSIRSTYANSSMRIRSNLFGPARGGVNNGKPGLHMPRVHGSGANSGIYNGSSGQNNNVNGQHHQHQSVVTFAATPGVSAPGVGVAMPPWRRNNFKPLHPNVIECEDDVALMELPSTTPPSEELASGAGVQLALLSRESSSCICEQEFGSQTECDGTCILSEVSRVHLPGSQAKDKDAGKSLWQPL
Procedure: (§1) Changes in intracellular calcium levels are another recognized indicator of G protein-coupled receptor activity, and such assays can be employed to screen for modulators of DmGPCR activity. For example, CHO cells stably transfected with a DmGPCR expression vector are plated at a density of 4×10^4 cells/well in Packard black-walled, 96-well plates specially designed to discriminate fluorescence signals emanating from the various wells on the plate. The cells are incubated for 60 minutes at 37° C. in modified Dulbecco's PBS (D-PBS) containing 36 mg/L pyruvate and 1 g/L glucose and one of four calcium indicator dyes (Fluo-3™ AM, Fluo-4™ AM, Calcium Green™-1 AM, or Oregon Green™ 488 BAPTA-1 AM), each at a concentration of 4 μM. Plates are washed once with modified D-PBS and incubated for 10 minutes at 37° C. to remove residual dye from the cellular membrane. In addition, a series of washes with modified D-PBS is performed immediately prior to activation of the calcium response.
(§2) A calcium response is initiated by the addition of one or more candidate receptor agonist compounds, calcium ionophore A23187 (10 μM; positive control), or ATP (4 μM; positive control). Fluorescence is measured by Molecular Device's FLIPR with an argon laser (excitation at 488 nm). (See, e.g., Kuntzweiler et al., Drug Dev. Res., 1998, 44(1), 14-20). The F-stop for the detector camera was set at 2.5, and the length of exposure was 0.4 milliseconds. Basal fluorescence of cells was measured for 20 seconds prior to addition of candidate agonist, ATP, or A23187, and the basal fluorescence level was subtracted from the response signal. The calcium signal is measured for approximately 200 seconds, taking readings every two seconds. Calcium ionophore A23187 and ATP increase the calcium signal 200% above baseline levels. In general, activated GPCRs increase the calcium signal approximately 10-15% above baseline signal.
(§3) Originally, we have chosen the GTPγS assay as a functional assay because agonist-driven stimulation of GTPγS reflects early events in the DmGPCR activation cascade, regardless of further activation pathways of various down-stream signaling events. This appears especially useful for the assessment of possible activation of orphan DmGPCRs with unknown functions and unknown signaling pathways. The GTPγS assay was carried out with membranes prepared from CHO cells transiently transfected with DNA encoding Drosophila GPCRs using a 96-well MultiScreen G/FB filter plates and a MultiScreen vacuum manifold (Millipore) for filtration. Since the GTPγS assay is known to poorly recognize GPCRs coupled to the Gq class of G-proteins, a Ca^+2 mobilization assay based on a FLIPR readout was used as well to evaluate Gq-coupled orphan GPCRs in CHO cells transiently transfected with DNA encoding Drosophila GPCRs.

DmGPCR4 = assay: [35S]GTPγS binding assay, membranes of transfected CHO cells; assay type: biochemical, Drosophila melanogaster; settings: given in words
Chain of DmGPCR4 (as listed by the source): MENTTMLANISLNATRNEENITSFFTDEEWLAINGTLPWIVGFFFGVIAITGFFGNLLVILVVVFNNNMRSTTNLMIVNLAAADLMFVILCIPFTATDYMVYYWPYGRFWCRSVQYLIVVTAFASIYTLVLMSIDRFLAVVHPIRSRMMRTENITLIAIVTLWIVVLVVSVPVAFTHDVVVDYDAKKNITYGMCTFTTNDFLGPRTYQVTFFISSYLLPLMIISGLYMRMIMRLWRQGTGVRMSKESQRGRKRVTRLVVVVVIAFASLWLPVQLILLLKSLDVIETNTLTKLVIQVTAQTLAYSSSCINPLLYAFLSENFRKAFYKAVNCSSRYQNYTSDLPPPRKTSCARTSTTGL
Procedure: (§4) The transfected cells were washed once with ice-cold Dulbecco's phosphate buffered saline (PBS), 5 ml per 10 cm plate, and scraped into 5 ml of the same buffer. Cell suspensions from multiple plates were combined and centrifuged at 500×g for 10 min at 4° C. The cell pellet was reconstituted in ice-cold TEE (25 mM TRIS, 5 mM EGTA, 5 mM EDTA). Convenient aliquots were snap-frozen in liquid nitrogen and stored at −70° C. After thawing, the cells were homogenized and centrifuged at 4° C., 500×g for 5 minutes to pellet nuclei and unbroken cells. The supernatant was centrifuged at 47,000×g for 30 minutes at 4° C. […] Membrane protein concentration was determined using the BCA Protein Assay Reagent from Pierce (Rockford, Ill.) and BSA as standard. […]
(§5) Ligand-induced stimulation of [^35S]GTPγS binding was expressed as fold increase over the basal activity with no ligand added. Each treatment was run either in triplicate, or, on occasion, in duplicate, and the binding (cpm) was calculated as means +/− standard deviations. Dose-response curves for the receptor/ligand systems were analyzed using a non-linear least square SAS model, y=Bmax X/(Kd+X). Other dose-response curves were analyzed using Prism (GraphPad Software, Inc. San Diego, Calif.) and the following equation y=Bottom+(Top−Bottom)/(1+10^LogEC50-X). […]

[1] = tested on: first Drosophila allatostatin receptor; settings: via Gi/Go pathways; cited from earlier work
DmGPCR5 = DmGPCR5 (Drosophila melanogaster, UniProt P30975, L70Q); assay: biochemical; set-up: expressed in transfected cells; host or cells: CHO-1000A (so in the source), transient
Chain of DmGPCR5 (P30975 whole entry L70Q): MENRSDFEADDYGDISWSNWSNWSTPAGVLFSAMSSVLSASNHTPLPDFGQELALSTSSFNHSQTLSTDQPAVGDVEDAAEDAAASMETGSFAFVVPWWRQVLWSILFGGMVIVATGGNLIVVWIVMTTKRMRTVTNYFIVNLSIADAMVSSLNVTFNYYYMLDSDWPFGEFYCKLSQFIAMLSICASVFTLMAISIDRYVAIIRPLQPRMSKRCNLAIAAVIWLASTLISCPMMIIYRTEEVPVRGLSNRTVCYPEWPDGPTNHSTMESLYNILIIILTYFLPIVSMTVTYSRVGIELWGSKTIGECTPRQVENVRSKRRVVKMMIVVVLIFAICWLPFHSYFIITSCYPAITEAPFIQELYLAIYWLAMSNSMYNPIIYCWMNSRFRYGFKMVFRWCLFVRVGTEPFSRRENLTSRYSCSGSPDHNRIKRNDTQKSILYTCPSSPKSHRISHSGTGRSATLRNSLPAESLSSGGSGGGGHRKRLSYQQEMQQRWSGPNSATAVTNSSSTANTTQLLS
Procedure: The transfected cells were washed once with ice-cold Dulbecco's phosphate buffered saline (PBS), 5 ml per 10 cm plate, and scraped into 5 ml of the same buffer. Cell suspensions from multiple plates were combined and centrifuged at 500×g for 10 min at 4° C. The cell pellet was reconstituted in ice-cold TEE (25 mM TRIS, 5 mM EGTA, 5 mM EDTA). Convenient aliquots were snap-frozen in liquid nitrogen and stored at −70° C. After thawing, the cells were homogenized and centrifuged at 4° C., 500×g for 5 minutes to pellet nuclei and unbroken cells. The supernatant was centrifuged at 47,000×g for 30 minutes at 4° C. The membrane pellet was washed once with TEE, resuspended in 20 mM HEPES, pH 7.4, 100 mM NaCl, 10 mM MgCl2, 1 mM EDTA (assay buffer), aliquoted and frozen in liquid nitrogen. Membrane aliquots were stored at −70° C. Membrane protein concentration was determined using the BCA Protein Assay Reagent from Pierce (Rockford, Ill.) and BSA as standard.
Initially, reaction mixtures were prepared in 96-well polypropylene plates (Nunc). In each well, peptide aqueous solution (20 μl, 10×), or water controls (20 μl), 18.2 μM GDP in assay buffer (0.11 ml, 10 μM final), and membranes suspended in assay buffer (50 μl, 10 μg membrane protein) were mixed and placed on ice. […] Then the membranes were washed 3 times with 0.25 ml ice-cold wash buffer/well (10 mM HEPES, 10 mM MgCl2, pH 7.4) and vacuum filtered. […] Each treatment was carried out in triplicates.
Ligand-induced stimulation of [^35S]GTPγS binding was expressed as fold increase over the basal activity with no ligand added. Each treatment was run either in triplicate, or, on occasion, in duplicate, and the binding (cpm) was calculated as means +/− standard deviations. Dose-response curves for the receptor/ligand systems were analyzed using a non-linear least square SAS model, y=Bmax X/(Kd+X). Other dose-response curves were analyzed using Prism (GraphPad Software, Inc. San Diego, Calif.) and the following equation y=Bottom+(Top−Bottom)/(1+10^LogEC50-X).
as §3

DmGPCR1 = assay: Ca+2 mobilization assay (FLIPR), transfected CHO cells; assay type: cell-based, Drosophila melanogaster
Procedure: as §1, with “Plates are washed once with modified D-PBS and incubated for 10 minutes at 37° C. to remove residual dye from the cellular membrane. In addition, a series of washes with modified D-PBS is performed immediately prior to activation of the calcium response.” left out
(§6) A calcium response is initiated by the addition of one or more candidate receptor agonist compounds, calcium ionophore A23187 (10 μM; positive control), or ATP (4 μM; positive control). Fluorescence is measured by Molecular Device's FLIPR with an argon laser (excitation at 488 nm). […] Basal fluorescence of cells was measured for 20 seconds prior to addition of candidate agonist, ATP, or A23187, and the basal fluorescence level was subtracted from the response signal. The calcium signal is measured for approximately 200 seconds, taking readings every two seconds. […]

DmGPCR8 [2] = assay: [35S]GTPγS binding assay, dose response; assay type: biochemical, Drosophila melanogaster; settings: DmGPCR8 in CHO-10001A cells; given in words
Procedure: as §4, §5

DmGPCR8 [3] = assay: direct calcium mobilization assay (FLIPR); assay type: cell-based, Drosophila melanogaster; settings: DmGPCR8 without chimeric G-protein
Procedure: as §1, with “Plates are washed once with modified D-PBS and incubated for 10 minutes at 37° C. to remove residual dye from the cellular membrane. In addition, a series of washes with modified D-PBS is performed immediately prior to activation of the calcium response.” left out
as §6

[4] = tested on: DmGPCR8 and chimeric G-proteins; assay: calcium mobilization (FLIPR) in CHO-10001A cells co-transfected with chimeric G-proteins; assay type: cell-based, Drosophila melanogaster; settings: for EC50: read-out: EC50, calcium releasing activity
Procedure: as §1, §2
as §3, with “The GTPγS assay was carried out with membranes prepared from CHO cells transiently transfected with DNA encoding Drosophila GPCRs using a 96-well MultiScreen G/FB filter plates and a MultiScreen vacuum manifold (Millipore) for filtration.” left out

muscle contraction = settings: cited from earlier work
[5] = tested on: CHO cells stably transfected with a DmGPCR expression vector; assay: Intracellular calcium measurement using FLIPR, positive controls; assay type: cell-based, Chinese hamster; settings: positive controls: A23187 10 μM, ATP 4 μM
Procedure: as §1, with “Plates are washed once with modified D-PBS and incubated for 10 minutes at 37° C. to remove residual dye from the cellular membrane. In addition, a series of washes with modified D-PBS is performed immediately prior to activation of the calcium response.” left out
as §6

For pGlu-RFHSWGa [DLK-2], the “EC50, intracellular calcium release (FLIPR)” value (DmGPCR7) was “picomoloar to subnanomolar range”.
For “SRPYSFGL [drostatin-3, Ser-Arg-Pro-Tyr-Ser-Phe-Gly-Leu-NH2]”, the “EC50, GTPγS responses” value (DmGPCR4) is listed as “low nanomolar range” and the “functional activation of the receptor” value [1] is listed as “functionally activated”.
Compound `CC[C@H](C)[C@H](NC(=O)[C@H](Cc1ccccc1)NC(=O)[C@H](CO)NC(=O)[C@H](CO)NC(=O)[C@@H](NC(=O)[C@@H]1CCCN1C(=O)[C@H](C)N)[C@@H](C)O)C(=O)NCC(=O)N[C@@H](CCSC)C(=O)N[C@@H](CCCNC(=N)N)C(N)=O` [DTK-1, APTSSFIGMR-NH2] (H-APTSSFIGMR-NH2) has an EC50 (DmGPCR5) of 250 to 500 nM.
With `CC(C)C[C@H](NC(=O)[C@H](CCCNC(=N)N)NC(=O)[C@H](CC(C)C)NC(=O)[C@H](CCC(N)=O)NC(=O)[C@@H]1CCCN1C(=O)CNC(=O)[C@H](CCCNC(=N)N)NC(=O)[C@H](C)N)C(=O)N[C@@H](CCCNC(=N)N)C(=O)N[C@@H](Cc1ccccc1)C(N)=O` [ARGPQLRLRF-NH2] (H-ARGPQLRLRF-NH2; N-terminus assumed) the EC50 (DmGPCR1) was 100 to 200 nM.
In the case of “[pGlu]VRFQCYFNPISCF-OH (cysteine pairing not given here) [AST-C]”, the “EC50, GTPγS-binding responses” value (DmGPCR8 [2]) is reported as “low nanomolar range” and the “activity in direct calcium mobilization assay (FLIPR)” value (DmGPCR8 [3]) is reported as “did not show any activity”.
For `CC[C@H](C)[C@@H]1NC(=O)[C@@H]2CCCN2C(=O)[C@H](CC(N)=O)NC(=O)[C@H](Cc2ccccc2)NC(=O)[C@H](Cc2ccc(O)cc2)NC(=O)[C@@H](NC(=O)[C@H](CCC(N)=O)NC(=O)[C@H](CCCNC(=N)N)NC(=O)[C@H](Cc2ccc(O)cc2)NC(=O)[C@H](CCCNC(=N)N)NC(=O)[C@@H](NC(=O)[C@@H]2CCC(=O)N2)C(C)C)CSSC[C@@H](C(=O)N[C@@H](Cc2ccccc2)C(=O)O)NC(=O)[C@H](CO)NC1=O` [DST-C, pGlu-Val-Arg-Tyr-Gln-Cys-Tyr-Phe-Asn-Pro-Ile-Ser-Cys-Phe-OH], the “EC50, GTPγS-binding responses” value (DmGPCR8 [2]) was “low nanomolar range”, the “activity in direct calcium mobilization assay (FLIPR)” value (DmGPCR8 [3]) was “did not show any activity” and the EC50 ([4]; co-transfected with DmGPCR8 and Gqi5) was roughly 30 nM. The EC50 ([4]; co-transfected with DmGPCR8 and Gqo5) was roughly 30 nM, the calcium mobilization ([4]; co-transfected with DmGPCR8 and Gqs5) was “no calcium mobilization was observed” and the EC50 ([4]; co-transfected with DmGPCR8 and Gqz5) was 244 nM. For the same compound, the “inhibition of muscle contraction” value (muscle contraction) was “potent and prolonged inhibition”.
With pGlu-SSFHSWGa [LK-VI] the “EC50, intracellular calcium release (FLIPR)” value (DmGPCR7) was “picomoloar to subnanomolar range”.
With `Nc1ncnc2c1ncn2[C@@H]1O[C@H](COP(=O)(O)OP(=O)(O)OP(=O)(O)O)[C@@H](O)[C@H]1O` [ATP] the “increase of the calcium signal above baseline levels” value [5] was 200%.
For “NSVVLGKKQRFHSWGa (NSVVLGKKQRFHSWG-NH2) [DLK-1]”, the “EC50, intracellular calcium release (FLIPR)” value (DmGPCR7) was “picomoloar to subnanomolar range”.
